Test results reported in the CheMixHub viscosity set.
± gives the uncertainty stated by the source.

Experiment: xn = mol fraction of the nth substance listed

C[N+](=O)[O-] + c1ccccc1
Conditions | viscosity [mPa·s]
293.15 K, 101.33 kPa, x1 = 0.0919 | 0.627 ± 0.004
293.15 K, 101.33 kPa, x1 = 0.2238 | 0.606 ± 0.004
293.15 K, 101.33 kPa, x1 = 0.2978 | 0.597 ± 0.004
293.15 K, 101.33 kPa, x1 = 0.3994 | 0.587 ± 0.004
293.15 K, 101.33 kPa, x1 = 0.494 | 0.582 ± 0.004
293.15 K, 101.33 kPa, x1 = 0.7053 | 0.585 ± 0.004
293.15 K, 101.33 kPa, x1 = 0.8004 | 0.595 ± 0.004
293.15 K, 101.33 kPa, x1 = 0.9073 | 0.62 ± 0.004
298.15 K, 101 kPa, x1 = 0.1559 | 0.5732 ± 0.058
298.15 K, 101 kPa, x1 = 0.294 | 0.5584 ± 0.056
298.15 K, 101 kPa, x1 = 0.4165 | 0.5532 ± 0.056
298.15 K, 101 kPa, x1 = 0.5262 | 0.5534 ± 0.056
298.15 K, 101 kPa, x1 = 0.6247 | 0.5571 ± 0.056
298.15 K, 101 kPa, x1 = 0.7142 | 0.5652 ± 0.057
298.15 K, 101 kPa, x1 = 0.7953 | 0.577 ± 0.058
298.15 K, 101 kPa, x1 = 0.8693 | 0.5909 ± 0.06
298.15 K, 101 kPa, x1 = 0.9376 | 0.6098 ± 0.062
298.15 K, 101 kPa, x2 = 0.1005 | 0.6116 ± 0.0071
298.15 K, 101 kPa, x2 = 0.2025 | 0.5886 ± 0.007
298.15 K, 101 kPa, x2 = 0.3017 | 0.5772 ± 0.0069
298.15 K, 101 kPa, x2 = 0.4012 | 0.5724 ± 0.0069
298.15 K, 101 kPa, x2 = 0.5019 | 0.5707 ± 0.0069
298.15 K, 101 kPa, x2 = 0.6014 | 0.5751 ± 0.0069
298.15 K, 101 kPa, x2 = 0.7074 | 0.5817 ± 0.0069
298.15 K, 101 kPa, x2 = 0.7985 | 0.5905 ± 0.007
298.15 K, 101 kPa, x2 = 0.8947 | 0.6035 ± 0.0071
303.15 K, 101 kPa, x2 = 0.1005 | 0.5803 ± 0.0069
303.15 K, 101 kPa, x2 = 0.2025 | 0.5594 ± 0.0068
303.15 K, 101 kPa, x2 = 0.3017 | 0.5479 ± 0.0067
303.15 K, 101 kPa, x2 = 0.4012 | 0.5438 ± 0.0067
303.15 K, 101 kPa, x2 = 0.5019 | 0.5405 ± 0.0067
303.15 K, 101 kPa, x2 = 0.6014 | 0.5447 ± 0.0067
303.15 K, 101 kPa, x2 = 0.7074 | 0.5475 ± 0.0068
303.15 K, 101 kPa, x2 = 0.7985 | 0.556 ± 0.0068
303.15 K, 101 kPa, x2 = 0.8947 | 0.5662 ± 0.0069
308.15 K, 101 kPa, x2 = 0.1005 | 0.5518 ± 0.0068
308.15 K, 101 kPa, x2 = 0.2025 | 0.5299 ± 0.0067
308.15 K, 101 kPa, x2 = 0.3017 | 0.5201 ± 0.0066
308.15 K, 101 kPa, x2 = 0.4012 | 0.5142 ± 0.0066
308.15 K, 101 kPa, x2 = 0.5019 | 0.512 ± 0.0066
308.15 K, 101 kPa, x2 = 0.6014 | 0.5126 ± 0.0066
308.15 K, 101 kPa, x2 = 0.7074 | 0.5157 ± 0.0066
308.15 K, 101 kPa, x2 = 0.7985 | 0.5234 ± 0.0067
308.15 K, 101 kPa, x2 = 0.8947 | 0.5309 ± 0.0067
313.15 K, 101 kPa, x2 = 0.1005 | 0.5218 ± 0.0066
313.15 K, 101 kPa, x2 = 0.2025 | 0.5031 ± 0.0065
313.15 K, 101 kPa, x2 = 0.3017 | 0.4923 ± 0.0065
313.15 K, 101 kPa, x2 = 0.4012 | 0.4862 ± 0.0065
313.15 K, 101 kPa, x2 = 0.5019 | 0.4829 ± 0.0064
313.15 K, 101 kPa, x2 = 0.6014 | 0.4843 ± 0.0065
313.15 K, 101 kPa, x2 = 0.7074 | 0.4865 ± 0.0065
313.15 K, 101 kPa, x2 = 0.7985 | 0.4912 ± 0.0065
313.15 K, 101 kPa, x2 = 0.8947 | 0.4977 ± 0.0066

CCCC[NH2+]CCO.O=C([O-])c1ccccc1O + O
100 kPa, x2 = 0.142
Conditions | viscosity [mPa·s]
298 K | 876 ± 43
303 K | 582.8 ± 27
313 K | 275.5 ± 11
323 K | 145 ± 5.4
